The target of one assay is T1, IKKε (Homo sapiens, UniProt Q14164).
T1 construct: His-tag; made in house; host or cells: Sf9 insect cells
T1 sequence (Q14164 1-716): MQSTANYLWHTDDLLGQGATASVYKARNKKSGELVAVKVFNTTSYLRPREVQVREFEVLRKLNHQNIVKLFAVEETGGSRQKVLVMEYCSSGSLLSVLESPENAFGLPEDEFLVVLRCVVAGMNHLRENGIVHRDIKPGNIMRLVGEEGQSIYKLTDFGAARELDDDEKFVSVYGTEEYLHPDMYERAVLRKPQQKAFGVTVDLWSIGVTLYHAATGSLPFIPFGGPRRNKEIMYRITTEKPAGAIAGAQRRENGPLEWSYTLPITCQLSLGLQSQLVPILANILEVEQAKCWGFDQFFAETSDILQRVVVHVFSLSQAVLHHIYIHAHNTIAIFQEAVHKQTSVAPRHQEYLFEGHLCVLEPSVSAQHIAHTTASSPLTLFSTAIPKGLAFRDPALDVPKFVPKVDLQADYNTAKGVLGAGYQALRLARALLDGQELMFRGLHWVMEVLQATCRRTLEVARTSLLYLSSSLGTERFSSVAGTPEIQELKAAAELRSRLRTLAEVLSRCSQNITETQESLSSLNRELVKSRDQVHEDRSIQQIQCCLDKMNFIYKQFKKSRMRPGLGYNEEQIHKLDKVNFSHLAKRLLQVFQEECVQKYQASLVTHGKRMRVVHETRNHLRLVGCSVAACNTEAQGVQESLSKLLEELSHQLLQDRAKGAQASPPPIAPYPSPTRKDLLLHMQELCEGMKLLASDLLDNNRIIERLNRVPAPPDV
Description: In-vitro IKKε kinase assay ([γ33]ATP filter-plate). The settings on record: text bins; read-out: IC50 for inhibition of the kinase activity of IKKε. It counts as biochemical. In short, it runs like this: (§1)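 His-tagged IKKε and TBK1 from Sf9 cells were assayed with myelin basic protein or casein and [γ33]ATP at 2×Km ATP (32 μM for IKKε, 60 μM for TBK1). Enzyme was 0.1 or 0.015 μg/ml for IKKε and 0.1 or 0.02 μg/ml for TBK1 (normal/sensitized). Reactions ran 30-45 min, were filter-captured, scintillation-counted, and normalized to DMSO after background subtraction.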

Another assay addresses T2, TBK1 (Homo sapiens, UniProt Q9UHD2).
T2 construct: His-tag; made in house; host or cells: Sf9 insect cells
T2 sequence (Q9UHD2 1-729): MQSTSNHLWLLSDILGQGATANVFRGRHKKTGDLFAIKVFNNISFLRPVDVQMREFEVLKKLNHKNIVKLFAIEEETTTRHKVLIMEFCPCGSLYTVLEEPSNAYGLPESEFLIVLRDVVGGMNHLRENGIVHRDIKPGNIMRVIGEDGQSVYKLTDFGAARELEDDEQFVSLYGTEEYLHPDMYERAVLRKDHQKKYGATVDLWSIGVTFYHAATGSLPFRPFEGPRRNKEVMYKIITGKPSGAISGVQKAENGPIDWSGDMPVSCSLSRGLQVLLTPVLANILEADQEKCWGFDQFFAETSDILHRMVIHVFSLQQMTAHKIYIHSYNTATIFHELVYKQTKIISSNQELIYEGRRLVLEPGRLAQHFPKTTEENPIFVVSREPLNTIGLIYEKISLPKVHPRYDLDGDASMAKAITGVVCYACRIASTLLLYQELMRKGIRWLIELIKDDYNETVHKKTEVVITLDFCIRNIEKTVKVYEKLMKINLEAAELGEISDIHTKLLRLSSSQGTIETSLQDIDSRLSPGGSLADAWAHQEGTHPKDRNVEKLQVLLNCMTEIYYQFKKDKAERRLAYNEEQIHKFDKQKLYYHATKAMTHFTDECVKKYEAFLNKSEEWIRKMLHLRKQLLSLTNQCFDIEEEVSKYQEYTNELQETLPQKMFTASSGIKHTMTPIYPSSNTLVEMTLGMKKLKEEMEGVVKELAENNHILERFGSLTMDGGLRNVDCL
Description: In-vitro TBK1 kinase assay ([γ33]ATP filter-plate). The class given is biochemical. The note with it: text bins; read-out: IC50 for inhibition of the kinase activity of TBK1. A digest of the protocol: as §1

Turning to `COc1cc(Nc2nccc(-c3ccc(OC4CCN(C(=O)[C@H](C)O)CC4)c(C#N)c3)n2)ccc1OCCOCCN` [Example 105, 5-[2-({4-[2-(2-aminoethoxy)ethoxy]-3-methoxyphenyl}amino)pyrimidin-4-yl]-2-({1-[(2S)-2-hydroxypropanoyl]piperidin-4-yl}oxy)benzonitrile], the results for the IC50 on IKKε and at TBK1 were 5 to 50 nM and 10 to 100 nM, respectively.
For the compound `COc1ccc(-c2ccnc(Nc3ccc(OC)c(OCCN4CCOCC4)c3)n2)cc1C#N` [compound 368, 2-Methoxy-5-[2-({4-methoxy-3-[2-(morpholin-4-yl)ethoxy]phenyl}amino)pyrimidin-4-yl]benzonitrile], the results for the IC50 on IKKε and at TBK1 were 5 to 50 nM and 10 to 100 nM, respectively.
The like results for `COc1cc(N)cc(Nc2nccc(-c3ccc(OC)c(C#N)c3)n2)c1` [compound 358, 5-{2-[(3-Amino-5-methoxyphenyl)amino]pyrimidin-4-yl}-2-methoxybenzonitrile] were, in that order, 5 to 50 nM and 10 to 100 nM.
The like results for `COc1cc(NC(=O)NC2CCCC2)cc(Nc2nccc(-c3ccc(OC)c(C#N)c3)n2)c1` [compound 332, 1-(3-{[4-(3-Cyano-4-methoxyphenyl)pyrimidin-2-yl]amino}-5-methoxyphenyl)-3-cyclopentylurea] were, in that order, 5 to 50 nM and 10 to 100 nM.
The like results for `COc1ccc(-c2ccnc(Nc3ccc(CN4CCOCC4)cc3)n2)cc1C#N` [Example 251, 2-Methoxy-5-(2-{[4-(morpholin-4-ylmethyl)phenyl]amino}pyrimidin-4-yl)benzonitrile] were, in that order, 5 to 50 nM and 10 to 100 nM.
As for `COc1cc(Nc2nccc(-c3ccc(OC4CCOCC4)c(C#N)c3)n2)ccc1S(=O)(=O)NCCCO` [Example 155, 4-({4-[3-cyano-4-(tetrahydro-2H-pyran-4-yloxy)phenyl]pyrimidin-2-yl}amino)-N-(3-hydroxypropyl)-2-methoxybenzene-sulfonamide], the IC50 (commonly the concentration that gives 50% inhibition) was below 5 nM on IKKε and below 10 nM on TBK1.
As for `COc1cc(Nc2nccc(-c3ccc(NC(=O)C4CC4)c(C#N)c3)n2)ccc1CN1CC(OC)C1` [compound 570, N-{2-Cyano-4-[2-({3-methoxy-4-[(3-methoxyazetidin-1-yl)methyl]phenyl}amino)pyrimidin-4-yl]phenyl} cyclopropane-carboxamide], the IC50 at IKKε fell in the range of 5 to 50 nM; on TBK1, 10 to 100 nM.
The like results for `CC(C)C(=O)Nc1ccc(-c2ccnc(Nc3ccc(CN4CCOCC4)cc3)n2)cc1C#N` [compound 428, N-[2-cyano-4-(2-{[4-(morpholin-4-ylmethyl)phenyl]amino}pyrimidin-4-yl)phenyl]-2-methylpropanamide] were, in that order, 5 to 50 nM and 10 to 100 nM.
For the compound `COc1ccc(-c2ccnc(Nc3ccc(OC)c(OC)c3)n2)cc1C#N` [Example 48, 5-{2-[(3,4-Dimethoxyphenyl)amino]pyrimidin-4-yl}-2-methoxybenzonitrile], the IC50 on IKKε lay in the range of 5 to 50 nM; at TBK1, 10 to 100 nM.
The matching figures for `COc1ccc(Nc2nccc(-c3ccc(OC(C)(C)C)c(C#N)c3)n2)cc1OC` [Example 169, 2-tert-Butoxy-5-{2-[(3,4-dimethoxyphenyl)amino]pyrimidin-4-yl}benzonitrile]: 5 to 50 nM and 10 to 100 nM.
As to `N#Cc1cc(-c2ccnc(Nc3ccc(N4CCOCC4)cc3)n2)ccc1NC(=O)CN` [compound 568, N-[2-Cyano-4-(2-{[4-(morpholin-4-yl)phenyl]amino}pyrimidin-4-yl)phenyl] glycinamide], the IC50 was in the range of 5 to 50 nM at IKKε and 10 to 100 nM on TBK1.
Take `CC(=O)N1CCN(C(=O)Nc2ccc(Nc3nccc(-c4ccc(OC5CCOCC5)c(C#N)c4)n3)cc2)CC1` [Example 19, 4-acetyl-N-[4-({4-[3-cyano-4-(tetrahydro-2H-pyran-4-yloxy)phenyl]pyrimidin-2-yl}amino)phenyl] piperazine-1-carboxamide]: the IC50 on IKKε was 5 to 50 nM; at TBK1, below 10 nM.

The record behind these values is patent US20150352108A1, “AMINO-PYRIMIDINE COMPOUNDS AS INHIBITORS OF TBK1 AND/OR IKK EPSILON” (Alzheimer's Institute of America, priority 2009, published 2015).
